One experiment concerns Sprague-Dawley rats. Briefly: Complete Freund's adjuvant (CFA)-induced thermal hyperalgesia. Type of experiment: in vivo, rat. The settings on record: 3 mg/kg s.c., 1 hour after dosing, reference standard. The method, then: Injection of complete Freund's adjuvant (CFA) in rats is commonly used to evaluate compounds with potential for use as drugs in treatment of mono-arthritis (osteo-arthritis) and other inflammatory conditions. Signs of hyperalgesia develop within 24 h (Schaible and Grubb, 1993).
(2S,3R)—N-2-((3-pyridinyl)methyl)-1-azabicyclo[2.2.2]oct-3-yl)-3,5-difluorobenzamide was evaluated for possible analgesia effect in the CFA-induced thermal hyperalgesia test in rats using methods similar to those described by Walker and colleagues (2003). Briefly, adult male Sprague-Dawley rats (BioLasco, Taiwan) weighing 180±20 g on receipt were randomly assigned to treatment groups of n=8 per group. Animals each received a sub plantar injection (0.1 mL) of CFA (DIFCO, 264010; 0.1% solution) to the right hind paw at 24 h prior to experimental testing. Thermal hyperalgesia was tested using a Paw/Tail stimulator analgesia meter (IITC Model-336G, IITC, USA) with a thermally regulated glass floor set at 30° C. […] The time required for the animal to withdraw the paw from the thermal stimulus was automatically recorded. […]
Twenty-four hours after CFA injection, subjects were pre-selected (for clear presence of thermal hyperalgesia) for experimentation only if the latency to withdrawal was less than 75% of the baseline. […] The post-treatment level of thermal hyperalgesia was then measured at 60 minutes post-treatment. […]

For a further experiment, the system named is CD-1 mice. The experiment in a line: Formalin test. Type of experiment: in vivo, mouse. As to conditions: 5 mg/kg s.c., positive control. The method, then:
One of the most clinically predictive screening models of acute pain is the formalin test in mice (LeBars et al., 2001). In this paradigm, originally described by Dubuisson and Dennis (1977), a diluted solution of formalin is injected into the plantar surface of a subject's (rat or mouse) rear paw and nociceptive behavior is measured; for instance, licking and biting of the injected paw. Two phases of the response are observed. First an early phase, starting immediately after injection and lasting 5-10 minutes, followed by a late phase that can last from 15-60 minutes after injection. Nociceptive response is attributed to direct chemical stimulation in the early phase and inflammation/persistent pain in the later phase (Dubuisson and Dennis, 1977). The response in the late phase also depends on changes in processing of information in the spinal cord due to the afferent barrage during the early phase (Coderre et al., 1990). An advantage of the test is that two different types of stimuli are employed in the same assay to study the possibility of varying analgesic effects of a drug in the two phases of the test (Tjølsen and Hole, 1997).
Subjects (adult male CD-1 mice (Charles River, Raleigh, N.C.) weighing approximately 20-25 grams) were removed from their home cage and weighed, then placed in a clear Plexiglas™ observation box for an acclimation period of 20-30 minutes. Mice were then removed from the observation chambers and (2S,3R)—N-2-((3-pyridinyl)methyl)-1-azabicyclo[2.2.2]oct-3-yl)-3,5-difluorobenzamide (as the hydrochloride salt in 0.9% saline) (1, 3 or 10 mg/kg s.c. (calculated with respect to the free base)), morphine (5 mg/kg; s.c.) or 0.9% saline vehicle was administered subcutaneously in a volume of 1 mL/kg. Mice were then returned to the chamber for the predetermined pretreatment time of 30 minutes for (2S,3R)—N-2-((3-pyridinyl)methyl)-1-azabicyclo[2.2.2]oct-3-yl)-3,5-difluorobenzamide and morphine.
After the test compound pretreatment time, the animals were injected with formalin solution (2.5% derived as a 1:4 dilution of 10% phosphate buffered formalin solution (Sigma):distilled water). The subject's assigned paw was gasped gently and formalin solution was injected into the paw intra-dermally in the middle on the dorsal side. Once injected, the subject was immediately returned to its observation chamber and a timer was started to mark the beginning of Phase I. Each subject was videotaped for the entire 40-minute session. […] The time spent licking during that 1 min interval was recorded, and the presence or absence of paw favoring was noted.
For data analyses, phase I of the test was defined as 0 to 5 minutes after formalin injection, and phase II was defined as 20 to 40 minutes after formalin injection. The time spent licking during the 1 minute intervals during those time frames was recorded and graphed as mean±S.E.M. For comparisons across treatment groups, 1-way analyses of variance (ANOVAs) were performed for each phase of the session with treatment as the […] variable. Post-hoc analyses were performed when appropriate to determine specific group differences.

With `CN1CC[C@]23c4c5ccc(O)c4O[C@H]2[C@@H](O)C=C[C@H]3[C@H]1C5` [morphine, reference compound], the “analgesic effect on CFA-induced thermal hyperalgesia” value in the experiment on Sprague-Dawley rats is listed as “significant analgesic activity”. Besides, in the experiment on CD-1 mice, the “efficacy, phase I” value is on record as “efficacious” and the “efficacy, phase II” value is given as “efficacious”.

These data come from patent US20110312961A1, “2,5-Disubstituted Morpholine Orexin REceptor Antagonists” (priority 2008, published 2011).
